According to US20090232866A1, “Oligopeptides as coating material for medical products” (priority 2003, published 2009):
*: point of attachment. CH2Cl = ClC*

Tested on: coronary arteries of pigs
Experiment: Balloon angioplasty and stent implantation in pig coronary arteries, IVUS assessment of neointimal proliferation after 4 weeks
Format: in vivo, Domestic pigs
Conditions: local administration via perfusion balloon, 4 weeks after balloon angioplasty and stent implantation, 7 pigs per group

Ac-Tyr-Val-Ala-Asp-chloromethylketone (Ac-YVAD-CH2Cl) [Ac-YVAD-CMK]
reduction of maximum plaque area in comparison with the negative control group (fraction of control value): approximately ⅓
reduction of plaque volume in comparison with the negative control group (fraction of control value): approximately ⅙
reduction of the stenotisized area in comparison with the negative control group (percent of control value): approximately 40%
